Tested on: NCI-H196 complex spheroid growth, percent test/control
Assay: Anticancer human tumor NCI-H196 cell line growth inhibition [AhR];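 also: seven days of drug exposure starting three days after plating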;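 as to viability, T/C: 100% = DMSO vehicle control wells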
Conditions: for IC50: curve of first compound; for viability, T/C: stronger effect = lower value
Summary of the method: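 Spheroids combined tumor cells with HUVEC endothelial cells and human MSCs as stroma. AhR antagonists were paired with standard or investigational drugs, each dosed in half-log steps down from near clinical Cmax, or from 10 microM where Cmax was unknown.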

[1] = second compound 0.1 µM, first compound 0.0316 µM
[2] = second compound 0.1 µM, first compound 0.1 µM
[3] = second compound 0.1 µM, first compound 0.316 µM
[4] = second compound 0.1 µM, first compound 1 µM
[5] = second compound 0.1 µM, first compound 3.16 µM
[6] = second compound 0.1 µM, first compound 10 µM
[7] = second compound 0.316 µM, first compound 0.0316 µM
[8] = second compound 0.316 µM, first compound 0.1 µM
[9] = second compound 0.316 µM, first compound 0.316 µM
[10] = second compound 0.316 µM, first compound 1 µM
[11] = second compound 0.316 µM, first compound 3.16 µM
[12] = second compound 0.316 µM, first compound 10 µM
[13] = second compound 1 µM, first compound 0.0316 µM
[14] = second compound 1 µM, first compound 0.1 µM
[15] = second compound 1 µM, first compound 0.316 µM
[16] = second compound 1 µM, first compound 1 µM
[17] = second compound 1 µM, first compound 3.16 µM
[18] = second compound 1 µM, first compound 10 µM
[19] = second compound 3.16 µM, first compound 0.0316 µM
[20] = second compound 3.16 µM, first compound 0.1 µM
[21] = second compound 3.16 µM, first compound 0.316 µM
[22] = second compound 3.16 µM, first compound 1 µM
[23] = second compound 3.16 µM, first compound 3.16 µM
[24] = second compound 3.16 µM, first compound 10 µM
[25] = second compound 10 µM, first compound 0.0316 µM
[26] = second compound 10 µM, first compound 0.1 µM
[27] = second compound 10 µM, first compound 0.316 µM
[28] = second compound 10 µM, first compound 1 µM
[29] = second compound 10 µM, first compound 3.16 µM
[30] = second compound 10 µM, first compound 10 µM
[31] = second compound 0.1 µM, first compound 0.00949 µM
[32] = second compound 0.1 µM, first compound 0.03 µM
[33] = second compound 0.1 µM, first compound 0.0949 µM
[34] = second compound 0.1 µM, first compound 0.3 µM
[35] = second compound 0.316 µM, first compound 0.00949 µM
[36] = second compound 0.316 µM, first compound 0.03 µM
[37] = second compound 0.316 µM, first compound 0.0949 µM
[38] = second compound 0.316 µM, first compound 0.3 µM
[39] = second compound 1 µM, first compound 0.00949 µM
[40] = second compound 1 µM, first compound 0.03 µM
[41] = second compound 1 µM, first compound 0.0949 µM
[42] = second compound 1 µM, first compound 0.3 µM
[43] = second compound 3.16 µM, first compound 0.00949 µM
[44] = second compound 3.16 µM, first compound 0.03 µM
[45] = second compound 3.16 µM, first compound 0.0949 µM
[46] = second compound 3.16 µM, first compound 0.3 µM
[47] = second compound 10 µM, first compound 0.00949 µM
[48] = second compound 10 µM, first compound 0.03 µM
[49] = second compound 10 µM, first compound 0.0949 µM
[50] = second compound 10 µM, first compound 0.3 µM

`CC1(C)CCC(CN2CCN(c3ccc(C(=O)NS(=O)(=O)c4ccc(NCC5CCOCC5)c([N+](=O)[O-])c4)c(Oc4cnc5[nH]ccc5c4)c3)CC2)=C(c2ccc(Cl)cc2)C1` + CC(CO)NC(=O)c1cc(-c2ccc(Cl)cc2)nn(-c2cnn(C)c2)c1=O was tested, and the IC50 (second compound 0.1 µM) was greater than 10 µM, the IC50 (second compound 0.316 µM) was greater than 10 µM and the IC50 (second compound 1 µM) was greater than 10 µM. For the same molecule, the IC50 (second compound 3.16 µM) was greater than 10 µM, the IC50 (second compound 10 µM) was greater than 10 µM and the viability, T/C [1] was 99.8%. For the same molecule, the viability, T/C [2] was 100%, the viability, T/C [3] was 98.9% and the viability, T/C [4] was 98.2%. The viability, T/C [5] was 106%, the viability, T/C [6] was 104% and the viability, T/C [7] was 100%. It also gave a viability, T/C [8] of 101%, a viability, T/C [9] of 100% and a viability, T/C [10] of 101%. It also gave a viability, T/C [11] of 103%, a viability, T/C [12] of 86.9% and a viability, T/C [13] of 99.7%. It also gave a viability, T/C [14] of 98.8%, a viability, T/C [15] of 96.5% and a viability, T/C [16] of 109%. The viability, T/C [17] was 106%, the viability, T/C [18] was 104% and the viability, T/C [19] was 98.8%. It also gave a viability, T/C [20] of 101%, a viability, T/C [21] of 108% and a viability, T/C [22] of 108%. The viability, T/C [23] was 113%, the viability, T/C [24] was 99.3% and the viability, T/C [25] was 104%. For the same molecule, the viability, T/C [26] was 113%, the viability, T/C [27] was 99.9% and the viability, T/C [28] was 115%. For the same molecule, the viability, T/C [29] was 116% and the viability, T/C [30] was 96%.

`CC1COCCN1c1cc(C2(S(C)(=N)=O)CC2)nc(-c2ccnc3[nH]ccc23)n1` (stereo not given) + CC(CO)NC(=O)c1cc(-c2ccc(Cl)cc2)nn(-c2cnn(C)c2)c1=O was tested, and the IC50 (second compound 0.1 µM) was greater than 10 µM, the IC50 (second compound 0.316 µM) was greater than 10 µM and the IC50 (second compound 1 µM) was greater than 10 µM. It also gave an IC50 (second compound 3.16 µM) greater than 10 µM, an IC50 (second compound 10 µM) greater than 10 µM and a viability, T/C [1] of 106%. For the same molecule, the viability, T/C [2] was 115%, the viability, T/C [3] was 98.6% and the viability, T/C [4] was 117%. It also gave a viability, T/C [5] of 101%, a viability, T/C [6] of 87% and a viability, T/C [7] of 103%. It also gave a viability, T/C [8] of 110%, a viability, T/C [9] of 114% and a viability, T/C [10] of 104%. For the same molecule, the viability, T/C [11] was 89.8%, the viability, T/C [12] was 91.1% and the viability, T/C [13] was 113%. For the same molecule, the viability, T/C [14] was 114%, the viability, T/C [15] was 114% and the viability, T/C [16] was 109%. It also gave a viability, T/C [17] of 100%, a viability, T/C [18] of 85.8% and a viability, T/C [19] of 119%. For the same molecule, the viability, T/C [20] was 126%, the viability, T/C [21] was 106% and the viability, T/C [22] was 111%. The viability, T/C [23] was 99.3%, the viability, T/C [24] was 83.8% and the viability, T/C [25] was 113%. It also gave a viability, T/C [26] of 115%, a viability, T/C [27] of 109% and a viability, T/C [28] of 120%. The viability, T/C [29] was 103% and the viability, T/C [30] was 81.8%.

Molecule `CCN(c1cc(-c2ccc(CN3CCOCC3)cc2)cc(C(=O)NCc2c(C)cc(C)[nH]c2=O)c1C)C1CCOCC1` + CC(CO)NC(=O)c1cc(-c2ccc(Cl)cc2)nn(-c2cnn(C)c2)c1=O has an IC50 (second compound 0.1 µM) greater than 3 µM, an IC50 (second compound 0.316 µM) greater than 3 µM and an IC50 (second compound 1 µM) greater than 3 µM. The IC50 (second compound 3.16 µM) was greater than 3 µM, the IC50 (second compound 10 µM) was greater than 3 µM and the viability, T/C [31] was 111%. It also gave a viability, T/C [32] of 111%, a viability, T/C [33] of 105% and a viability, T/C [34] of 108%. The viability, T/C (second compound 0.1 µM, first compound 0.949 µM) was 111%, the viability, T/C (second compound 0.1 µM, first compound 3 µM) was 107% and the viability, T/C [35] was 123%. For the same molecule, the viability, T/C [36] was 118%, the viability, T/C [37] was 105% and the viability, T/C [38] was 111%. The viability, T/C (second compound 0.316 µM, first compound 0.949 µM) was 118%, the viability, T/C (second compound 0.316 µM, first compound 3 µM) was 121% and the viability, T/C [39] was 112%. For the same molecule, the viability, T/C [40] was 116%, the viability, T/C [41] was 113% and the viability, T/C [42] was 117%. The viability, T/C (second compound 1 µM, first compound 0.949 µM) was 118%, the viability, T/C (second compound 1 µM, first compound 3 µM) was 118% and the viability, T/C [43] was 121%. The viability, T/C [44] was 112%, the viability, T/C [45] was 121% and the viability, T/C [46] was 112%. It also gave a viability, T/C (second compound 3.16 µM, first compound 0.949 µM) of 123%, a viability, T/C (second compound 3.16 µM, first compound 3 µM) of 108% and a viability, T/C [47] of 120%. It also gave a viability, T/C [48] of 127%, a viability, T/C [49] of 123% and a viability, T/C [50] of 115%. The viability, T/C (second compound 10 µM, first compound 0.949 µM) was 115% and the viability, T/C (second compound 10 µM, first compound 3 µM) was 124%.

Molecule `Nc1ncn(C2CC(O)C(CO)S2)c(=O)n1` (stereo not given) + CC(CO)NC(=O)c1cc(-c2ccc(Cl)cc2)nn(-c2cnn(C)c2)c1=O has an IC50 (second compound 0.1 µM) greater than 0.3 µM, an IC50 (second compound 0.316 µM) greater than 0.3 µM and an IC50 (second compound 1 µM) greater than 0.3 µM. It also gave an IC50 (second compound 3.16 µM) greater than 0.3 µM, an IC50 (second compound 10 µM) greater than 0.3 µM and a viability, T/C (second compound 0.1 µM, first compound 0.000949 µM) of 104%. For the same molecule, the viability, T/C (second compound 0.1 µM, first compound 0.003 µM) was 94.2%, the viability, T/C [31] was 103% and the viability, T/C [32] was 108%. For the same molecule, the viability, T/C [33] was 116%, the viability, T/C [34] was 103% and the viability, T/C (second compound 0.316 µM, first compound 0.000949 µM) was 105%. For the same molecule, the viability, T/C (second compound 0.316 µM, first compound 0.003 µM) was 104%, the viability, T/C [35] was 94.2% and the viability, T/C [36] was 101%. The viability, T/C [37] was 113%, the viability, T/C [38] was 105% and the viability, T/C (second compound 1 µM, first compound 0.000949 µM) was 107%. For the same molecule, the viability, T/C (second compound 1 µM, first compound 0.003 µM) was 104%, the viability, T/C [39] was 112% and the viability, T/C [40] was 110%. For the same molecule, the viability, T/C [41] was 112%, the viability, T/C [42] was 118% and the viability, T/C (second compound 3.16 µM, first compound 0.000949 µM) was 106%. The viability, T/C (second compound 3.16 µM, first compound 0.003 µM) was 101%, the viability, T/C [43] was 110% and the viability, T/C [44] was 114%. It also gave a viability, T/C [45] of 120%, a viability, T/C [46] of 127% and a viability, T/C (second compound 10 µM, first compound 0.000949 µM) of 108%. It also gave a viability, T/C (second compound 10 µM, first compound 0.003 µM) of 116%, a viability, T/C [47] of 118% and a viability, T/C [48] of 114%. The viability, T/C [49] was 111% and the viability, T/C [50] was 112%.

Source: PubChem BioAssay AID1919016 (Molecular Pharmacology Branch, DTP, NCI, 2023)
